Reference: ChEMBL document CHEMBL1127237, “Analogs of UK 14,304 as 2-adrenoceptor agonists. Twist and agent polarity as design elements” (Bioorg Med Chem Lett, 1994)

How the values were obtained:
[1] = molecular target: T1, Adrenergic receptor alpha-1 (Homo sapiens, UniProt P35348+P25100+P35368); test: Binding affinity towards Alpha-1 adrenergic receptor in human brain
T1 sequence (P35348 whole entry): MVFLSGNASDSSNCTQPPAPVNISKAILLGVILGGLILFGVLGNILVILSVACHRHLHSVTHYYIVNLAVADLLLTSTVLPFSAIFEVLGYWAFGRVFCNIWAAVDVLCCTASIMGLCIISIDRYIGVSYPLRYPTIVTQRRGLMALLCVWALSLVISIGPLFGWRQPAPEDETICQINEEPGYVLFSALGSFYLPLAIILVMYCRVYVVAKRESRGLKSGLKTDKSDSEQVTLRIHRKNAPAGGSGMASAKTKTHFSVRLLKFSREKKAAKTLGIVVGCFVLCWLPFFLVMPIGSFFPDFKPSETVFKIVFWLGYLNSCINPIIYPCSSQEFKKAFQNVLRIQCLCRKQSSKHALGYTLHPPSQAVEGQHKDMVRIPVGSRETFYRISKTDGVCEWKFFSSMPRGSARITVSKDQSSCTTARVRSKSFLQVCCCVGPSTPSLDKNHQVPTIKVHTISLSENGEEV
T1 sequence (P25100 whole entry): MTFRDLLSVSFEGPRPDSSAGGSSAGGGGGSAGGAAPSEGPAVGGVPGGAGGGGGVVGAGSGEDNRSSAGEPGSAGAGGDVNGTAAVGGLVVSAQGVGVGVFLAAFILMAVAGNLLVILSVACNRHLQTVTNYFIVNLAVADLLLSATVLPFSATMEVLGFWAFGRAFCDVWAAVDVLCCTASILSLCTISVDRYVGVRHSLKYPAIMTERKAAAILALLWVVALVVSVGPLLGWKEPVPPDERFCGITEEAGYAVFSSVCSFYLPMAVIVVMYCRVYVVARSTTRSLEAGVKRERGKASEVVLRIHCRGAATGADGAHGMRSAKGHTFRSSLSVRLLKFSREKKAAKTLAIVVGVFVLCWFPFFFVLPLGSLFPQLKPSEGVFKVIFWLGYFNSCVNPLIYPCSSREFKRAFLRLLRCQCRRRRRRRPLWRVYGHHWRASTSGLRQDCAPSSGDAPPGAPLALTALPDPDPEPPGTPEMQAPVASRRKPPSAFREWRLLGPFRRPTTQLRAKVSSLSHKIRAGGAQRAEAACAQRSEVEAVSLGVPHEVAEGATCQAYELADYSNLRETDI
T1 sequence (P35368 whole entry): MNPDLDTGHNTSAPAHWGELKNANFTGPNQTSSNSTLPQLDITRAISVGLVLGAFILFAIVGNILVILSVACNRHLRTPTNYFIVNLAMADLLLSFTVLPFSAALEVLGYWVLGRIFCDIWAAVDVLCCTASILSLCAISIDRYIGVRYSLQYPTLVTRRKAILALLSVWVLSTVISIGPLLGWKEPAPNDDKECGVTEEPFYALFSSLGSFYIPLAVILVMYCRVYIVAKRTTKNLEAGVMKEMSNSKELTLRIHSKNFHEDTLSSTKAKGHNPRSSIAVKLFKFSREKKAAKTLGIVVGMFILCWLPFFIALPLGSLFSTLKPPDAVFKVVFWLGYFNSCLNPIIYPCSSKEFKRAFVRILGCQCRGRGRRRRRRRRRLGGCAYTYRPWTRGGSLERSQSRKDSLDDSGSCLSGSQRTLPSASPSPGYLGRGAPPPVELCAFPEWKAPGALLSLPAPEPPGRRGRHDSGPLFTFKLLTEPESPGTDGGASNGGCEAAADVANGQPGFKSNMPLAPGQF

[2] = molecular target: T2, Adrenergic receptor alpha-2 (Homo sapiens, UniProt P08913+P18825+P18089); test: Binding affinity towards Alpha-2 adrenergic receptor in HT-29 cells; format: cell-based
T2 sequence (P08913 whole entry): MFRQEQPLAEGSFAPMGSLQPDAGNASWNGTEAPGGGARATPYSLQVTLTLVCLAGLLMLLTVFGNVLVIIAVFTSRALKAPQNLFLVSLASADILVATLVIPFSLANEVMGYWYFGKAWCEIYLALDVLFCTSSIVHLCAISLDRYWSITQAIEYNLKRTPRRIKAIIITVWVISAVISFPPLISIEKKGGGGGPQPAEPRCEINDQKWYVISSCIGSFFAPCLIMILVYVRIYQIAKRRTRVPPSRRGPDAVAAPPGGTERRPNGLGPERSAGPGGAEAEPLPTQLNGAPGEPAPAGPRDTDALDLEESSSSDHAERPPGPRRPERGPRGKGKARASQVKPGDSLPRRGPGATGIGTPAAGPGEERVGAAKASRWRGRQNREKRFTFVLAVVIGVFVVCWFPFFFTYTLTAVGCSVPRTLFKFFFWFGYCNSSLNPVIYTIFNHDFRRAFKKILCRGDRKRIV
T2 sequence (P18825 whole entry): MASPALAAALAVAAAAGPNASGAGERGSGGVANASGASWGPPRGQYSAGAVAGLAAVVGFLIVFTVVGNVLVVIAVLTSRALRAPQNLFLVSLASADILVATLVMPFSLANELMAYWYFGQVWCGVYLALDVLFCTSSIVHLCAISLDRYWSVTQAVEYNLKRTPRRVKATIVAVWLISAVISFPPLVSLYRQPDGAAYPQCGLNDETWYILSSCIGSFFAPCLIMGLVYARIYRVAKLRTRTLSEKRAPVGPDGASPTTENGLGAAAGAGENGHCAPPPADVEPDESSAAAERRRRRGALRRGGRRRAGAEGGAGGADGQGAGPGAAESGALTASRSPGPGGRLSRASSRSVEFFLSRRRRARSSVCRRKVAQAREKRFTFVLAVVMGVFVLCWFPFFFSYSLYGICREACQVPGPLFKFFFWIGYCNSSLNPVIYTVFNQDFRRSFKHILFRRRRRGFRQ
T2 sequence (P18089 whole entry): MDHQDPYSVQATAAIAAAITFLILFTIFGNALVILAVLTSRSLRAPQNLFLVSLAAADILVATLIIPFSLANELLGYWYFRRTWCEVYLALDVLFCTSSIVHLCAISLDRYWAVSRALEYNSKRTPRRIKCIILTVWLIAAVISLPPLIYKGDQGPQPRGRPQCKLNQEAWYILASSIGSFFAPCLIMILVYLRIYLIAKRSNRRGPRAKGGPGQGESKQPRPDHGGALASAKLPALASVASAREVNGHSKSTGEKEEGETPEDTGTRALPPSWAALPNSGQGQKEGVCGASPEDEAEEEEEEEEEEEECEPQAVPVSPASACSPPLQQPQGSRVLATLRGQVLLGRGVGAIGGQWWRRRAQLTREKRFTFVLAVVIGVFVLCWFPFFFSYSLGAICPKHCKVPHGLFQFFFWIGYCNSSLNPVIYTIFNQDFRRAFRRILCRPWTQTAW

[3] = Distribution coefficient between octanol and pH 7.2 phosphate buffer; format: physicochemical; conditions: for logD: octanol/phosphate buffer

| SMILES | Ki [1] [nM] | Ki [2] [nM] | logD [3] | Log DC ([3]; octanol/water) |
| --- | --- | --- | --- | --- |
| c1cc2c(cc1NC1=NCCN1)NCCN2 | 5100 | 46 |  |  |
| Cc1c(NC2=NCCN2)ccc2nccnc12 | 1400 | 1.3 | 0.16 |  |
| Cc1c(NC2=NCCN2)ccc2c1NCCN2 | 8700 | 6.8 | -2.08 |  |
| c1cnc2cc(NC3=NCCN3)ccc2n1 | 11000 | 64 |  |  |
| Brc1c(NC2=NCCN2)ccc2c1NCCN2 | 1100 | 6 | -1.74 |  |
| Brc1c(NC2=NCCN2)ccc2nccnc12 [BRIMONIDINE] |  |  |  | 1.5 |
